Results published in ChEMBL document CHEMBL4033793, “Potent and Selective Inhibitors of Human Sirtuin 5” (J Med Chem, 2018).
Residues, ends and D or L forms follow the SMILES beside them. *: point of attachment. X51 = O=C(O)[C@@H](CC(=O)*)SCc1ccc([N+](=O)[O-])cc1; X15 = CC(C)(C)c1ccc(CS[C@H](CC(=O)*)C(=O)O)cc1; X49 = O=C(O)[C@H](CC(=O)*)SCc1cccc(C(F)(F)F)c1; X62 = Cc1cc(C)c(CS[C@@H](CC(=O)*)C(=O)O)c(C)c1; X56 = Cc1cc(C)c(CS[C@H](CC(=O)*)C(=O)O)c(C)c1; X63 = O=C(O)[C@@H](CC(=O)*)SCc1ccc(Cl)c(Cl)c1; X16 = O=C(O)[C@H](CC(=O)*)SCc1ccc(Cl)c(Cl)c1; X39 = O=C(O)[C@H](CC(=O)*)Sc1cc(Cl)cc(Cl)c1; X72 = O=C(O)[C@@H](CC(=O)*)SCc1cccc2ccccc12; X3 = O=C(O)[C@H](CC(=O)*)Sc1ccc(Cl)c(Cl)c1; X36 = O=C(O)[C@@H](CC(=O)*)Sc1ccc2ccccc2c1; X41 = O=C(O)[C@@H](CC(=O)*)Sc1cc(Cl)ccc1Cl; X58 = O=C(O)[C@@H](CC(=O)*)Sc1cccc(Cl)c1Cl; X38 = O=C(O)[C@H](CC(=O)*)Sc1cccc2ccccc12; X43 = O=C(O)[C@H](CC(=O)*)Sc1ccc(Cl)cc1Cl; X50 = O=C(O)[C@H](CC(=O)*)Sc1cc(Cl)ccc1Cl; X66 = COc1ccc(CS[C@@H](CC(=O)*)C(=O)O)cc1; X61 = O=C(O)[C@@H](CC(=O)*)Sc1cccc(Cl)c1; X34 = O=C(O)[C@@H](CC(=O)*)Sc1ccccc1Cl; X37 = O=C(O)[C@H](CC(=O)*)SCCCc1ccccc1; X73 = O=C(O)[C@H](CC(=O)*)SCc1ccccc1Cl; X21 = O=C(O)[C@@H](CC(=O)*)SC1CCCCC1; X40 = O=C(O)[C@H](CC(=O)*)SCc1ccccc1; X45 = O=C(O)[C@H](CC(=O)*)SC1CCCCC1; X44 = CC(CC(=O)*)Sc1ccc2ccccc2c1; X5 = O=C(O)C(CC(=O)*)SCCc1ccccn1; X7 = O=C(O)C(CC(=O)*)SCCc1ccncc1; X42 = O=C(CCSc1ccc2ccccc2c1)*; Bz = O=C(c1ccccc1)*

Molecular target: NAD-dependent protein deacylase sirtuin-5, mitochondrial (Homo sapiens, UniProt Q9NXA8)
Sequence (Q9NXA8 whole entry): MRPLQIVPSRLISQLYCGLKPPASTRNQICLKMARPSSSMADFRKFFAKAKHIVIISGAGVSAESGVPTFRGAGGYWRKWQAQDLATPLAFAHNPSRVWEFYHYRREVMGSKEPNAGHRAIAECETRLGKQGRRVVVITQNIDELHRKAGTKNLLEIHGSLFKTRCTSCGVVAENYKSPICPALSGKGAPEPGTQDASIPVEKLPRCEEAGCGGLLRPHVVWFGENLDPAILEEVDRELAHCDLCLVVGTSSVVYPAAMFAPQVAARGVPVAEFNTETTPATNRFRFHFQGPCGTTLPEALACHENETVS
Experiment: Inhibition of human recombinant N-terminal Strep2-tagged SIRT5 expressed in Escherichia coli BL21 (DE3) using Abz-GVLK(glutaryl)AY(NO2)GV-NH2 as substrate in presence of NAD+ by fluorescence assay

SMILES | IC50 [nM] | Ki [nM]
CC(C)C[C@H](NC(=O)[C@@H](NC(=O)CNC(=O)c1ccccc1)C(C)C)C(=O)N[C@@H](CCCCNC(=O)C[C@@H](SCc1cccc2ccccc12)C(=O)O)C(=O)N[C@@H](CCC(=O)O)C(=O)N[C@@H](Cc1ccc(O)cc1)C(=O)NCC(=O)N[C@H](C(N)=O)C(C)C (Bz-GVLK(X72)EYGV-NH2) | 207 | 
CC(C)C[C@H](NC(=O)[C@@H](NC(=O)CNC(=O)c1ccccc1)C(C)C)C(=O)N[C@@H](CCCCNC(=O)C[C@@H](Sc1ccc2ccccc2c1)C(=O)O)C(=O)N[C@@H](CCC(=O)O)C(=O)N[C@@H](Cc1ccc(O)cc1)C(=O)NCC(=O)N[C@H](C(N)=O)C(C)C (Bz-GVLK(X36)EYGV-NH2) | 1180 | 
CC(C)C[C@H](NC(=O)[C@@H](NC(=O)CNC(=O)c1ccccc1)C(C)C)C(=O)N[C@@H](CCCCNC(=O)C[C@@H](SCc1ccc([N+](=O)[O-])cc1)C(=O)O)C(=O)N[C@@H](CCC(=O)O)C(=O)N[C@@H](Cc1ccc(O)cc1)C(=O)NCC(=O)N[C@H](C(N)=O)C(C)C (Bz-GVLK(X51)EYGV-NH2) | 4030 | 
COc1ccc(CS[C@@H](CC(=O)NCCCC[C@H](NC(=O)[C@H](CC(C)C)NC(=O)[C@@H](NC(=O)CNC(=O)c2ccccc2)C(C)C)C(=O)N[C@@H](CCC(=O)O)C(=O)N[C@@H](Cc2ccc(O)cc2)C(=O)NCC(=O)N[C@H](C(N)=O)C(C)C)C(=O)O)cc1 (Bz-GVLK(X66)EYGV-NH2) | 1050 | 
Cc1cc(C)c(CS[C@H](CC(=O)NCCCC[C@H](NC(=O)[C@H](CC(C)C)NC(=O)[C@@H](NC(=O)CNC(=O)c2ccccc2)C(C)C)C(=O)N[C@@H](CCC(=O)O)C(=O)N[C@@H](Cc2ccc(O)cc2)C(=O)NCC(=O)N[C@H](C(N)=O)C(C)C)C(=O)O)c(C)c1 (Bz-GVLK(X56)EYGV-NH2) | 631 | 
CC(C)C[C@H](NC(=O)[C@@H](NC(=O)CNC(=O)c1ccccc1)C(C)C)C(=O)N[C@@H](CCCCNC(=O)CCSc1ccc2ccccc2c1)C(=O)N[C@@H](CCC(=O)O)C(=O)N[C@@H](Cc1ccc(O)cc1)C(=O)NCC(=O)N[C@H](C(N)=O)C(C)C (Bz-GVLK(X42)EYGV-NH2) | > 40000 | 
CC(C)C[C@H](NC(=O)[C@@H](NC(=O)CNC(=O)c1ccccc1)C(C)C)C(=O)N[C@@H](CCCCNC(=O)C[C@H](SCc1ccccc1Cl)C(=O)O)C(=O)N[C@@H](CCC(=O)O)C(=O)N[C@@H](Cc1ccc(O)cc1)C(=O)NCC(=O)N[C@H](C(N)=O)C(C)C (Bz-GVLK(X73)EYGV-NH2) | 533 | 
O=C(C[C@H](Sc1ccc2ccccc2c1)C(=O)O)NCc1ccccc1 | 124000 | 
CC(C)C[C@H](NC(=O)[C@@H](NC(=O)CNC(=O)c1ccccc1)C(C)C)C(=O)N[C@@H](CCCCNC(=O)C[C@H](SCc1cccc(C(F)(F)F)c1)C(=O)O)C(=O)N[C@@H](CCC(=O)O)C(=O)N[C@@H](Cc1ccc(O)cc1)C(=O)NCC(=O)N[C@H](C(N)=O)C(C)C (Bz-GVLK(X49)EYGV-NH2) | 1120 | 
CC(C)C[C@H](NC(=O)[C@@H](NC(=O)CNC(=O)c1ccccc1)C(C)C)C(=O)N[C@@H](CCCCNC(=O)C[C@@H](Sc1ccccc1Cl)C(=O)O)C(=O)N[C@@H](CCC(=O)O)C(=O)N[C@@H](Cc1ccc(O)cc1)C(=O)NCC(=O)N[C@H](C(N)=O)C(C)C (Bz-GVLK(X34)EYGV-NH2) | 3100 | 
CC(C)C[C@H](NC(=O)[C@@H](NC(=O)CNC(=O)c1ccccc1)C(C)C)C(=O)N[C@@H](CCCCNC(=O)C[C@H](SCc1ccc(Cl)c(Cl)c1)C(=O)O)C(=O)N[C@@H](CCC(=O)O)C(=O)N[C@@H](Cc1ccc(O)cc1)C(=O)NCC(=O)N[C@H](C(N)=O)C(C)C (Bz-GVLK(X16)EYGV-NH2) | 740 | 
CC(C)C[C@H](NC(=O)[C@@H](NC(=O)CNC(=O)c1ccccc1)C(C)C)C(=O)N[C@@H](CCCCNC(=O)C[C@H](Sc1cccc2ccccc12)C(=O)O)C(=O)N[C@@H](CCC(=O)O)C(=O)N[C@@H](Cc1ccc(O)cc1)C(=O)NCC(=O)N[C@H](C(N)=O)C(C)C (Bz-GVLK(X38)EYGV-NH2) | 95 | 
CC(=O)N[C@@H](CC(C)C)C(=O)N[C@@H](CCCCNC(=O)C[C@H](Sc1ccc2ccccc2c1)C(=O)O)C(=O)N[C@@H](C)C(N)=O | 350 | 
CC(C)C[C@H](NC(=O)[C@@H](NC(=O)CNC(=O)c1ccccc1)C(C)C)C(=O)N[C@@H](CCCCNC(=O)C[C@@H](SCc1ccc(C(C)(C)C)cc1)C(=O)O)C(=O)N[C@@H](CCC(=O)O)C(=O)N[C@@H](Cc1ccc(O)cc1)C(=O)NCC(=O)N[C@H](C(N)=O)C(C)C (Bz-GVLK(X15)EYGV-NH2) | 1240 | 
CC(C)C[C@H](NC(=O)[C@@H](NC(=O)CNC(=O)c1ccccc1)C(C)C)C(=O)N[C@@H](CCCCNC(=O)CC(SCCc1ccncc1)C(=O)O)C(=O)N[C@@H](CCC(=O)O)C(=O)N[C@@H](Cc1ccc(O)cc1)C(=O)NCC(=O)N[C@H](C(N)=O)C(C)C (stereo partly specified) (Bz-GVLK(X7)EYGV-NH2) | 13200 | 
CC(C)C[C@H](NC(=O)[C@@H](NC(=O)CNC(=O)c1ccccc1)C(C)C)C(=O)N[C@@H](CCCCNC(=O)CC(C)Sc1ccc2ccccc2c1)C(=O)N[C@@H](CCC(=O)O)C(=O)N[C@@H](Cc1ccc(O)cc1)C(=O)NCC(=O)N[C@H](C(N)=O)C(C)C (stereo partly specified) (Bz-GVLK(X44)EYGV-NH2) | > 40000 | 
CC(C)C[C@H](NC(=O)[C@@H](NC(=O)CNC(=O)c1ccccc1)C(C)C)C(=O)N[C@@H](CCCCNC(=O)CC(SCCc1ccccn1)C(=O)O)C(=O)N[C@@H](CCC(=O)O)C(=O)N[C@@H](Cc1ccc(O)cc1)C(=O)NCC(=O)N[C@H](C(N)=O)C(C)C (stereo partly specified) (Bz-GVLK(X5)EYGV-NH2) | 6970 | 
CC(C)C[C@H](NC(=O)[C@@H](NC(=O)CNC(=O)c1ccccc1)C(C)C)C(=O)N[C@@H](CCCCNC(=O)C[C@H](SC1CCCCC1)C(=O)O)C(=O)N[C@@H](CCC(=O)O)C(=O)N[C@@H](Cc1ccc(O)cc1)C(=O)NCC(=O)N[C@H](C(N)=O)C(C)C (Bz-GVLK(X45)EYGV-NH2) | > 4000 | 
CC(C)C[C@H](NC(=O)[C@@H](NC(=O)CNC(=O)c1ccccc1)C(C)C)C(=O)N[C@@H](CCCCNC(=O)C[C@H](SCc1ccccc1)C(=O)O)C(=O)N[C@@H](CCC(=O)O)C(=O)N[C@@H](Cc1ccc(O)cc1)C(=O)NCC(=O)N[C@H](C(N)=O)C(C)C (Bz-GVLK(X40)EYGV-NH2) | 336 | 
CC(C)C[C@H](NC(=O)[C@@H](NC(=O)CNC(=O)c1ccccc1)C(C)C)C(=O)N[C@@H](CCCCNC(=O)C[C@H](Sc1ccc(Cl)c(Cl)c1)C(=O)O)C(=O)N[C@@H](CCC(=O)O)C(=O)N[C@@H](Cc1ccc(O)cc1)C(=O)NCC(=O)N[C@H](C(N)=O)C(C)C (Bz-GVLK(X3)EYGV-NH2) | 45.9 | 23
CC(C)C[C@H](NC(=O)[C@@H](NC(=O)CNC(=O)c1ccccc1)C(C)C)C(=O)N[C@@H](CCCCNC(=O)C[C@@H](Sc1cccc(Cl)c1)C(=O)O)C(=O)N[C@@H](CCC(=O)O)C(=O)N[C@@H](Cc1ccc(O)cc1)C(=O)NCC(=O)N[C@H](C(N)=O)C(C)C (Bz-GVLK(X61)EYGV-NH2) | 1380 | 
CC(C)C[C@H](NC(=O)[C@@H](NC(=O)CNC(=O)c1ccccc1)C(C)C)C(=O)N[C@@H](CCCCNC(=O)C[C@H](Sc1ccc(Cl)cc1Cl)C(=O)O)C(=O)N[C@@H](CCC(=O)O)C(=O)N[C@@H](Cc1ccc(O)cc1)C(=O)NCC(=O)N[C@H](C(N)=O)C(C)C (Bz-GVLK(X43)EYGV-NH2) | 177 | 
Cc1cc(C)c(CS[C@@H](CC(=O)NCCCC[C@H](NC(=O)[C@H](CC(C)C)NC(=O)[C@@H](NC(=O)CNC(=O)c2ccccc2)C(C)C)C(=O)N[C@@H](CCC(=O)O)C(=O)N[C@@H](Cc2ccc(O)cc2)C(=O)NCC(=O)N[C@H](C(N)=O)C(C)C)C(=O)O)c(C)c1 (Bz-GVLK(X62)EYGV-NH2) | 5200 | 
CC(C)C[C@H](NC(=O)[C@@H](NC(=O)CNC(=O)c1ccccc1)C(C)C)C(=O)N[C@@H](CCCCNC(=O)C[C@@H](SC1CCCCC1)C(=O)O)C(=O)N[C@@H](CCC(=O)O)C(=O)N[C@@H](Cc1ccc(O)cc1)C(=O)NCC(=O)N[C@H](C(N)=O)C(C)C (Bz-GVLK(X21)EYGV-NH2) | > 14000 | 
CC(C)C[C@H](NC(=O)[C@@H](NC(=O)CNC(=O)c1ccccc1)C(C)C)C(=O)N[C@@H](CCCCNC(=O)C[C@@H](Sc1cccc(Cl)c1Cl)C(=O)O)C(=O)N[C@@H](CCC(=O)O)C(=O)N[C@@H](Cc1ccc(O)cc1)C(=O)NCC(=O)N[C@H](C(N)=O)C(C)C (Bz-GVLK(X58)EYGV-NH2) | 3390 | 
CC(C)C[C@H](NC(=O)[C@@H](NC(=O)CNC(=O)c1ccccc1)C(C)C)C(=O)N[C@@H](CCCCNC(=O)C[C@H](Sc1cc(Cl)ccc1Cl)C(=O)O)C(=O)N[C@@H](CCC(=O)O)C(=O)N[C@@H](Cc1ccc(O)cc1)C(=O)NCC(=O)N[C@H](C(N)=O)C(C)C (Bz-GVLK(X50)EYGV-NH2) | 295 | 
CC(C)C[C@H](NC(=O)[C@@H](NC(=O)CNC(=O)c1ccccc1)C(C)C)C(=O)N[C@@H](CCCCNC(=O)C[C@H](SCCCc1ccccc1)C(=O)O)C(=O)N[C@@H](CCC(=O)O)C(=O)N[C@@H](Cc1ccc(O)cc1)C(=O)NCC(=O)N[C@H](C(N)=O)C(C)C (Bz-GVLK(X37)EYGV-NH2) | 1130 | 
CC(C)C[C@H](NC(=O)[C@@H](NC(=O)CNC(=O)c1ccccc1)C(C)C)C(=O)N[C@@H](CCCCNC(=O)C[C@@H](Sc1cc(Cl)ccc1Cl)C(=O)O)C(=O)N[C@@H](CCC(=O)O)C(=O)N[C@@H](Cc1ccc(O)cc1)C(=O)NCC(=O)N[C@H](C(N)=O)C(C)C (Bz-GVLK(X41)EYGV-NH2) | 1980 | 
CC(C)C[C@H](NC(=O)[C@@H](NC(=O)CNC(=O)c1ccccc1)C(C)C)C(=O)N[C@@H](CCCCNC(=O)C[C@@H](SCc1ccc(Cl)c(Cl)c1)C(=O)O)C(=O)N[C@@H](CCC(=O)O)C(=O)N[C@@H](Cc1ccc(O)cc1)C(=O)NCC(=O)N[C@H](C(N)=O)C(C)C (Bz-GVLK(X63)EYGV-NH2) | 780 | 
CC(C)C[C@H](NC(=O)[C@@H](NC(=O)CNC(=O)c1ccccc1)C(C)C)C(=O)N[C@@H](CCCCNC(=O)C[C@H](Sc1cc(Cl)cc(Cl)c1)C(=O)O)C(=O)N[C@@H](CCC(=O)O)C(=O)N[C@@H](Cc1ccc(O)cc1)C(=O)NCC(=O)N[C@H](C(N)=O)C(C)C (Bz-GVLK(X39)EYGV-NH2) | 86.1 | 
